Assay results from patent publication US6388080B1, “Polymorphic forms of 6-[4-(1-cyclohexyl-1H-tetrazol-5-yl)butoxy]-3,4-dihydro-2(1H)-quinolinone” (priority 2001, dated 2002).

How the values were obtained:
bioavailability = type: in vivo; settings: Form A as prepared by the procedures of the '479 patent
[1] = aqueous solubility of cilostazol polymorphic forms; type: physicochemical; settings: for solubility relative to Form A: suggested by lower melting point than Form A in DSC thermogram (FIG. 8)
[2] = DSC of disturbed sample: solid state phase transformation to Form A; type: physicochemical; settings: sample disturbed (scratching/stressed), DSC heating from 30° C. to approximately 200° C. at 10° C. per minute; followed by melt of Form A at about 160° C.
Description: Characterization of Form A of cilostazol, Form B of cilostazol, and Form C of cilostazol was further completed using DSC thermograms, shown in FIGS. 3, 4, and 5, respectively, with DSC thermograms for combinations of Form A and Form B; Form B and Form C; and Forms A, B, and C are shown in FIGS. 6, 7, and 8 respectively. DSC data were generated using a Mettler-Toledo DSC 821^e(Columbus, Ohio) with a Julabo FT900 intercooler chiller (Julabo Company; Allentown, Pa.). In general, samples were analyzed in a vented, sealed aluminum pan. Because the endothermic peak may vary depending upon the rate of heating and the calibration and precision of the instrument, with the amount of peak variation dependent upon the heating rate used, all thermograms included herein were run under the same, consistent conditions: heating at 10° C. per minute under a nitrogen purge at 40 mL/minute. The resultant sample of Example 1A was disturbed with scratching, which caused the cilostazol sample to undergo a solid state phase transformation at approximately 119° C. followed by an endotherm of melt at approximately 160° C. (Form A) during heating by DSC from 30° C. to approximately 200° C. at 10° C. per minute. When the sample is stressed and reheated (as detailed in Example 2A), the sample undergoes a solid state phase transformation at approximately 147° C. followed by an endotherm of melt at about 160° C. […]

[3] = stability of the polymorphic form; type: physicochemical

## O=C1CCc2cc(OCCCCc3nnnn3C3CCCCC3)ccc2N1 [Form A, 6-[4-(1-cyclohexyl-1H-tetrazol-5-yl)butoxy]-3,4-dihydro-2(1H)-quinolinone]
bioavailability
  bioavailability: low
[1]; Form A as prepared by the procedures of the '479 patent
  aqueous solubility: low

## O=C1CCc2cc(OCCCCc3nnnn3C3CCCCC3)ccc2N1 [Form B, 6-[4-(1-cyclohexyl-1H-tetrazol-5-yl)butoxy]-3,4-dihydro-2(1H)-quinolinone]
[2]
  solid state phase transformation temperature: approximately 119 °C
[3]
  stability of the form: stable
[1]
  solubility relative to Form A: more soluble than Form A

## O=C1CCc2cc(OCCCCc3nnnn3C3CCCCC3)ccc2N1 [Form C, 6-[4-(1-cyclohexyl-1H-tetrazol-5-yl)butoxy]-3,4-dihydro-2(1H)-quinolinone]
[2]
  solid state phase transformation temperature: approximately 147 °C
[3]
  stability of the form: stable
[1]
  solubility relative to Form A: more soluble than Form A
